Measurements reported in article PMC7469199, “Immunosuppressive Activities of Novel PLA2 Inhibitors from Xenorhabdus hominickii, an Entomopathogenic Bacterium” (Insects, 2020).

Key:
Sf9 cells = test: Cytotoxicity test (MTT); type: cell-based; details: for Cytotoxicity (MIC, minimum inhibitory concentration): MTT, 24 h at 28 °C
Procedure: Cytotoxicity of each secondary metabolite was evaluated by 3-(4,5 dimethylthiazol-2-yl)-2,5-diphenyl tetrazolium bromide (MTT) assay according to the method described by Mollah et al.. with a slight modification. Briefly, Sf9 cells (1.2 × 10^4 cells in 200 μL of TC-100 medium) were seeded into each 96-well. After adding each test chemical (2.5 μL in DMSO), the plate was incubated at 28 °C for 24 h. Control cells were treated with 2.5 μL of DMSO. After 24 h incubation, 10 μL of MTT (5 mg/mL in PBS) was added to each well and cells were cultured for another 4 h at 28 °C. Formazan granules formed in viable cells were dissolved in 50 μL of DMSO. Absorbance was then measured at 540 nm using a microplate reader (Victor Multilabel Plate Reader, PerkinElmer, Waltham, MA, USA).

cytosolic PLA2 (cPLA2) = test: Cytosolic PLA2 (cPLA2) activity; type: biochemical, Spodoptera exigua; details: for Median Inhibitory Concentrations (IC50), cPLA2: S. exigua, synthetic compounds; for Potency for inhibiting cPLA2 (in words): based on IC50 values
Procedure: (§1) To characterize PLA2 inhibition by test chemicals, activities of two different PLA2s [secretory PLA2 (sPLA2) and cytosolic PLA2 (cPLA2)] were assessed with methods described by Vatanparast et al..

[1] = tested on: hemocyte PLA2 of S. exigua; test: Nonspecific (total) hemocyte PLA2 activity, pyrene-labeled phospholipid fluorometric assay; type: biochemical, Spodoptera exigua; details: for Inhibitory activity against hemocyte PLA2 (in words): S. exigua hemocyte PLA2, extracts, fractions or synthetic compounds; for Median Inhibitory Concentrations (IC50), Total PLA2: hemocyte extract of S. exigua L5 larvae, synthetic compounds
Procedure: Hemocyte PLA2 activity was fluorometrically determined with a pyrene-labeled phospholipid substrate using a spectrofluorometer (VICTOR multi-label plate reader, PerkinElmer, Waltham, MA, USA) at excitation and emission wavelengths of 345 and 398 nm, respectively. For measuring PLA2 activity, hemolymph was collected from ~10 L5 larvae. Hemocytes and plasma were separated by centrifugation at 800× g for 3 min at 4 °C. Hemocytes were then homogenized in 500 µL of PBS with a polytron (Ultra-Turrax T8, Ika Laboratory, Funkentshort, Germany). After centrifugation at 14,000× g for 5 min at 4 °C, protein concentration of the supernatant was determined by Bradford assay using bovine serum albumin (BSA) as the standard. The reaction mixture was prepared in a 96-well microplate by adding 129 μL of 50 mM Tris buffer (pH 7.0), 2 μL of 1 M CaCl2, and 2 μL of 10% BSA into each well. A sample solution consisted of 5 μL of test bacterial metabolites and 10 μL of hemocyte enzyme extract ([…]). The plate was then incubated at room temperature for 30 min. Enzyme reaction was then initiated by adding pyrene-labeled PL substrate (2 μL) to the reaction mixture.

S. exigua larvae [2] = test: Effect on pathogenicity of X. hominickii (co-injection); type: in vivo, Spodoptera exigua; details: L5 larvae injected with Xh 10^2 cfu/larva along with inhibitor (5 µg/larva Fig. 7A; 2 µg/larva Fig. S6); 4 days after treatment
Procedure: For the virulence test of X. hominickii, 24 h-cultured cells (10^8 cfu/mL) were diluted with sterile PBS. […] Injection was performed through the first abdominal proleg using a micro syringe. Injected larvae were incubated at room temperature individually in 9 cm Petri dishes. For oral toxicity assay of B. thuringiensis, a small piece (2 × 2 cm) of Chinese cabbage was dipped in 500 ppm of Bt or a mixture of Bt (500 ppm) with 500 ppm of test chemical for 5 min. After a brief (5 min) drying under a dark condition, the treated leaf was supplied to individual test larva in 9 cm Petri dish for 24 h at room temperature. After 24 h, larvae were fed with fresh cabbage leaves. Each treatment was replicated three times with 10 larvae per replication. […] Larvae were considered dead if they were unable to move in a coordinated manner when prodded with a blunt probe.

S. exigua larvae [3] = test: Effect on pathogenicity of Bacillus thuringiensis (oral, leaf dipping); type: in vivo, Spodoptera exigua; details: cabbage leaf dipped in Bt 500 ppm mixed with inhibitor 500 ppm; 4 days after treatment
Procedure: (§2) For the virulence test of X. hominickii, 24 h-cultured cells (10^8 cfu/mL) were diluted with sterile PBS. After surface sterilization with 95% ethanol, each L5 larva was injected with 1 µL of test compound (1 µg/larva) along with bacterial suspension (10^2 cfu/larva). Injection was performed through the first abdominal proleg using a micro syringe. Injected larvae were incubated at room temperature individually in 9 cm Petri dishes. For oral toxicity assay of B. thuringiensis, a small piece (2 × 2 cm) of Chinese cabbage was dipped in 500 ppm of Bt or a mixture of Bt (500 ppm) with 500 ppm of test chemical for 5 min. After a brief (5 min) drying under a dark condition, the treated leaf was supplied to individual test larva in 9 cm Petri dish for 24 h at room temperature. After 24 h, larvae were fed with fresh cabbage leaves. Each treatment was replicated three times with 10 larvae per replication. […] Larvae were considered dead if they were unable to move in a coordinated manner when prodded with a blunt probe.

S. exigua larvae [4] = test: Feeding toxicity, leaf-dipping method; type: in vivo, Spodoptera exigua; details: for Insecticidal Activities, Feeding: median lethal concentration by Probit analysis, leaf-dipping
Procedure: as §2
(§3) All data for continuous variables were subjected to one-way analysis of variance (ANOVA) using PROG GLM in SAS program. Mortality data were subjected to arcsine transformation and used for ANOVA. Means were compared with the least significant difference (LSD) test at Type I error of 0.05. Median toxicity values such as median lethal dose (LD50), median lethal concentration (LC50), median lethal time (LT50), and median inhibition concentrations (IC50) were calculated by Probit analysis using EPA Probit Analysis Program, ver. 1.5 (U.S. Environmental Protection Agency, Washington, DC, USA).
These compounds were also tested for their feeding toxicities using a leaf-dipping method.

[5] = tested on: hemocyte phagocytosis of S. exigua; test: Phagocytosis assay with FITC-labeled E. coli in L5 larvae; type: in vivo, Spodoptera exigua; details: for Inhibition of phagocytosis (in words): S. exigua hemocytes; for Median Inhibitory Concentration (IC50), Phagocytosis: injected into L5 larvae with FITC-labeled E. coli
Procedure: For in vivo phagocytosis assay, test chemical (1 µL) and FITC-labeled E. coli (5 µL, 5 × 10^4 cells/µL) were injected to L5 larva. Hemolymph (50 µL) was collected at 15 min after injection and mixed with 50 µL of ice cold ACB. After centrifugation at 700 × g for 3 min at 4 °C, the supernatant plasma was replaced with 100 µL of TC-100 insect cell culture medium (Welgene, Daegu, Korea). Hemocyte suspension (10 µL) was placed onto a slide and over laid with 10 µL glycerol (50%, v/v). Hemocytes undergoing phagocytosis were determined by fluorescence-emitting cells under a fluorescence microscope (Leica, Wetzlar, Germany) at 40× magnification. For in vitro phagocytosis, hemocyte suspension and labeled bacteria mixture (30 µL) were incubated in a dark place for 1 h at room temperature. Hemocytes were then washed three times with PBS by centrifugation at 700× g for 2 min at 4 °C and finally resuspended in TC-100 medium. This hemocyte suspension was observed under the fluorescence microscope in FITC or DIC mode after forming monolayers on glass slides.

secretory PLA2 (sPLA2) = test: Secretory PLA2 (sPLA2) activity; type: biochemical, Spodoptera exigua; details: for Median Inhibitory Concentrations (IC50), sPLA2: S. exigua, synthetic compounds; for Potency for inhibiting sPLA2 (in words): based on IC50 values
Procedure: as §1

S. exigua larvae [6] = test: Insecticidal activity by injection; type: in vivo, Spodoptera exigua; details: for Insecticidal Activities, Injection: median lethal dose by Probit analysis, S. exigua larvae
Procedure: as §3, with “USA). […]” for “USA).”

[7] = tested on: hemocyte nodule formation; test: Nodulation assay after E. coli injection in L5 larvae; type: in vivo, Spodoptera exigua; details: for Median Inhibitory Concentration (IC50), Nodulation: injected into L5 larvae with E. coli, nodules counted after 8 h
Procedure: To assess nodule formation, immune challenge was performed by injecting 3 µL of Escherichia coli Top10 (10^4 cells/larva) (Invitrogen, Madison, WI, USA) through the abdominal proleg of L5 larvae using a microsyringe (Hamilton, Reno, NV, USA). After incubating at 25 °C for 8 h, test insects were dissected to count the number of melanized nodules under a stereo microscope (Stemi SV11, Zeiss, Jena, Germany) at 50× magnification. For chemical test, 1 µL aliquot of test chemical at different concentrations was injected into each larva along with E. coli. AA was injected at 10 μg per larva. Each treatment was independently replicated five times.

mammals = details: cited from earlier work

Compound	Cytotoxicity (MIC, minimum inhibitory concentration) (Sf9 cells)	Median Inhibitory Concentrations (IC50), cPLA2 (cytosolic PLA2 (cPLA2))	Potency for inhibiting cPLA2 (in words) (cytosolic PLA2 (cPLA2))	Inhibitory activity against hemocyte PLA2 (in words) [1]	Median Inhibitory Concentrations (IC50), Total PLA2 [1]	Insecticidal Activities, Feeding (S. exigua larvae [4])	Inhibition of phagocytosis (in words) [5]	Median Inhibitory Concentration (IC50), Phagocytosis [5]	Median Inhibitory Concentrations (IC50), sPLA2 (secretory PLA2 (sPLA2))	Potency for inhibiting sPLA2 (in words) (secretory PLA2 (sPLA2))	Insecticidal Activities, Injection (S. exigua larvae [6])	Median Inhibitory Concentration (IC50), Nodulation [7]	further results
CCOc1cc(O)ccc1OC [EMP, 3-ethoxy-4-methoxyphenol]	0.1 ± 0.01 f µg/mL	0.05 ± 0.004 ef µg/mL	highly potent	most potent	0.04 ± 0.02 e µg/mL	2100.34 ± 40.19 f µg/mL	highly potent	0.20 ± 0.03 g ng/larva	0.03 ± 0.005 f µg/mL	highly potent	18.95 ± 2.61 d µg/larva	0.20 ± 0.02 f ng/larva	Concentration inducing cytotoxicity (Sf9 cells): less than 1 µg/mL; Effect on X. hominickii pathogenicity / insecticidal activity (S. exigua larvae [2]): significantly (p < 0.05) increased; Effect on B. thuringiensis insecticidal activity (S. exigua larvae [3]): significantly (p < 0.05) increased; Feeding (oral) toxicity (in words) (S. exigua larvae [4]; leaf-dipping method): most potent; Killing of larvae after injection (in words) (S. exigua larvae [6]; individually injected to S. exigua larvae): most potent; Inhibition of nodule formation (in words) ([7]; S. exigua L5 larvae, E. coli challenge): high potency
CCCCCCCCCCCCCCCCCCCCCC [DS, docosane]	1.0 ± 0.03 a µg/mL	0.32 ± 0.02 b µg/mL	–	–	0.81 ± 0.04 b µg/mL	3554.0 ± 100.18 a µg/mL	–	8.40 ± 0.68 b ng/larva	1.22 ± 0.15 a µg/mL	least potent	49.54 ± 4.55 a µg/larva	1.11 ± 0.09 b ng/larva	–
N#Cc1ccccc1C(=O)O [CBA, o-cyanobenzoic acid]	0.50 ± 0.02 c µg/mL	0.38 ± 0.03 a µg/mL	least potent	least potent	0.86 ± 0.02 a µg/mL	2850.65 ± 80.68 c µg/mL	least potent	32.50 ± 2.35 a ng/larva	1.11 ± 0.11 a µg/mL	least potent	54.96 ± 4.03 a µg/larva	2.50 ± 0.22 a ng/larva	–
CCCCCCCCOC(=O)c1ccc(C(=O)OCCCCCCCC)cc1 [DOTP, dioctyl terephthalate]	0.50 ± 0.01 c µg/mL	0.06 ± 0.005 e µg/mL	highly potent	–	0.16 ± 0.006 cd µg/mL	3220.45 ± 90.91 b µg/mL	–	8.70 ± 0.89 b ng/larva	0.56 ± 0.05 c µg/mL	–	38.89 ± 3.21 b µg/larva	1.10 ± 0.07 b ng/larva	Toxicity to mammals (in words) (mammals): relatively nontoxic
CCCCCC=CCC=CCC=CCC=CCCCC(=O)O [AA, 5,8,11,14-eicosatetraenoic acid, reference compound]	–	–	–	–	–	–	–	–	–	–	–	–	Reversal of suppressed phagocytosis by AA addition ([5]; AA 10 µg/larva with the eight compounds): reversed; Rescue of suppressed nodule formation by AA addition ([7]; AA 10 µg/larva co-injected with extract, subfraction or compound and E. coli): significantly (p < 0.05) rescued
CCCCC(CC)CO (centres unmarked) [EH, 2-ethyl-1-hexanol]	0.20 ± 0.02 e µg/mL	0.11 ± 0.01 µg·days/mL	–	–	0.14 ± 0.01 µg·days/mL	2456.35 ± 50.88 e µg/mL	–	–	0.05 ± 0.004 f µg/mL	highly potent	29.90 ± 3.05 c µg/larva	0.40 ± 0.03 e ng/larva	–
